Test results published in patent EP4667458A1 (Kanaph Therapeutics Inc., priority 2023, dated 2024).

target: T1, KRAS^G12C::SOS1 (Homo sapiens, UniProt Q07889); experiment: KRAS G12C::SOS1 protein-protein interaction (PPI) inhibition assay (HTRF binding kit)
T1 sequence (Q07889 1-1333): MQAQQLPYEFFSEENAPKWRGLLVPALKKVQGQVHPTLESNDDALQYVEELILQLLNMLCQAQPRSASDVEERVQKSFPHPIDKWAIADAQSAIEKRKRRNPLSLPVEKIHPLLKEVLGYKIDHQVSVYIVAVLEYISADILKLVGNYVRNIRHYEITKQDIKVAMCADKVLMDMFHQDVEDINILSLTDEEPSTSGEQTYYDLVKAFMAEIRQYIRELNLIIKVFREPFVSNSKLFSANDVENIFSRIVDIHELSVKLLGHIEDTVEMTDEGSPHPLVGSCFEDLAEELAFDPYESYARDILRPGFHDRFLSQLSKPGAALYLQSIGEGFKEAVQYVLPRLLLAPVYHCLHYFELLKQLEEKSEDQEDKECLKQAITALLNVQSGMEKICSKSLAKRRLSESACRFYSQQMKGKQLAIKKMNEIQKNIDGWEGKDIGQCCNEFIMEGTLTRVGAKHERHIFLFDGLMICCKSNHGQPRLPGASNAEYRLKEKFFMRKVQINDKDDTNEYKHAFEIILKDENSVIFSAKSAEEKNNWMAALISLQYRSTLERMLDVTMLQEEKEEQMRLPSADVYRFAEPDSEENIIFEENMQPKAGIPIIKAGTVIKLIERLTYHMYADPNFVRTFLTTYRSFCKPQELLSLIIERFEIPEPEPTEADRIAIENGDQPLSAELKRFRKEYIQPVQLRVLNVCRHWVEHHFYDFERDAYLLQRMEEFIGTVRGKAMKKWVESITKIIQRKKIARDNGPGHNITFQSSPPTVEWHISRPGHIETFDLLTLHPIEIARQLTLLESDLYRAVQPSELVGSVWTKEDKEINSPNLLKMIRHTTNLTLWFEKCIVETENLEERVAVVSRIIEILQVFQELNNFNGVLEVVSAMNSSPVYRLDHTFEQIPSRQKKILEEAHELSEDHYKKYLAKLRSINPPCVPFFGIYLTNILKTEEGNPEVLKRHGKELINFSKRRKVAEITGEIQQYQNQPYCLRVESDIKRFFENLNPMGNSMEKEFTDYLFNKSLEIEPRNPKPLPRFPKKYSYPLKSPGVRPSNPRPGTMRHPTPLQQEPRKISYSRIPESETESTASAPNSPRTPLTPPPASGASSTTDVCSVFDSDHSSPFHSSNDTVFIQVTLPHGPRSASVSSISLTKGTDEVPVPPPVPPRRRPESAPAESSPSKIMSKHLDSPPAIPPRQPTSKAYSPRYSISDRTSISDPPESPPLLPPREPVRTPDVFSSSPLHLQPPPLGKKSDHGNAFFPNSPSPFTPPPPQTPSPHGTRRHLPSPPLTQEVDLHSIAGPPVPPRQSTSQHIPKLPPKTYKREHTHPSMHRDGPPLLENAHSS
Procedure: Protein-protein interaction between SOS1 and KRAS^G12C was detected using KRAS G12C/SOS1 binding kit from CISBIO (64KRASG12PEH, CISBIO, FRANCE) according to the manufacturer's assay method. Briefly, the maximum concentration of an inhibitor sample was set to be 3 µM, and the inhibitor sample was diluted 7 times by 1/3, and samples having a total of 8 concentrations were prepared. In HTRF (Homogeneous Time-Resolved Fluorescence) exclusive 96-well low-volume white plate (66PL96005, CISBIO, FRANCE), 2 µL of an inhibitor sample prepared for each concentration, 5 µL of a mixed solution of Tag1-labeled KRAS^G12C protein and GTP diluted with the dilution solution provided by the manufacturer, and 5 µL of Tag2 labeled SOS1 protein were mixed, and added with 8 µL of a diluted solution where anti-Tag1 KRAS^G12C XL665 (HTRF acceptor) labeled antibody and anti-Tag2 SOS1 Terbium cryptate (HTRF donor) labeled antibody were mixed in an equal ratio and incubated at room temperature for 2 h.

Row | Compound | IC50 [nM]
1 | COc1ccc(F)c(-n2nc(C(=O)N[C@H](C)c3cccc(C(F)(F)CO)c3F)ccc2=O)c1 [Example 182, N-[(1R)-1-[3-(1,1-difluoro-2-hydroxy-ethyl)-2-fluoro-phenyl]ethyl]-1-(2-fluoro-5-methoxyphenyl)-6-oxo-pyridazine-3-carboxamide] | < 1000
2 | COc1ccc(F)c(-n2nc(C(=O)N[C@H](C)c3cc(N)cc(C(F)(F)F)c3)ccc2=O)c1 [Example 183, N-[(1R)-1-[3-amino-5-(trifluoromethyl)phenyl]ethyl]-1-(2-fluoro-5-methoxy-phenyl)-6-oxo-pyridazine-3-carboxamide] | < 1000
3 | CNCc1ccc(Cl)cc1-c1ccc([C@@H](C)NC(=O)c2ccc(=O)n(-c3ccccc3F)c2)s1 [Example 283, N-[(1R)-1-[5-[5-chloro-2-(methylaminomethyl)phenyl]-2-thienyl]ethyl]-1-(2-fluorophenyl)-6-oxo-pyridine-3-carboxamide] | < 1000
4 | CNCc1ccc(F)cc1-c1ccc([C@@H](C)NC(=O)c2ccc(=O)n(-c3cccnc3OC)n2)s1 [Example 407] | < 1000
5 | C[C@@H](NC(=O)c1ccc(=O)n(-c2cccnc2F)n1)c1ccc(-c2cc(F)ccc2CN(C)C)s1 [Example 403, N-[(1R)-1-(5-{2-[(dimethylamino)methyl]-5-fluorophenyl}thiophen-2-yl)ethyl]-1-(2-fluoropyridin-3-yl)-6-oxo-1,6-dihydropyridazine-3-carboxamide] | < 1000
6 | C[C@@H](NC(=O)c1ccc(=O)n(-c2cccc(-c3cccnc3)c2)n1)c1cc(N)cc(C(F)(F)F)c1 [Example 338, N-[(1R)-1-[3-amino-5-(trifluoromethyl)phenyl]ethyl]-6-oxo-1-[3-(3-pyridyl)phenyl]pyridazine-3-carboxamide] | < 1000
7 | C[C@@H](NC(=O)c1ccc(=O)n(-c2ccccc2F)n1)c1cccc(-n2ccc(=O)cc2)c1 [Example 304] | > 10000
8 | C[C@H](NC(=O)c1ccc(=O)n(-c2ccccc2F)n1)c1cccc(F)c1Cl [Example 262, N-[(1S)-1-(2-chloro-3-fluorophenyl)ethyl]-1-(2-fluorophenyl)-6-oxo-pyridazine-3-carboxamide] | 1000 to 10000
9 | C[C@@H](NC(=O)c1ccc(=O)n(-c2cccc(C(=O)N3CCNCC3)c2)n1)c1cc(N)cc(C(F)(F)F)c1 [Example 250, N-[(1R)-1-[3-amino-5-(trifluoromethyl)phenyl]ethyl]-6-oxo-1-[3-(piperazine-1-carbonyl)phenyl]pyridazine-3-carboxamide] | < 1000
10 | C[C@@H](NC(=O)c1ccc(=O)n(-c2cccnc2F)n1)c1ccc(-c2cc(F)ccc2CN)s1 [Example 404] | < 1000
11 | COCC(F)(F)c1cccc([C@@H](C)NC(=O)c2ccc(=O)n(-c3ccccc3F)n2)c1F [Example 242, N-[(1R)-1-[3-(1,1-difluoro-2-methoxy-ethyl)-2-fluoro-phenyl]ethyl]-1-(2-fluorophenyl)-6-oxo-pyridazine-3-carboxamide] | < 1000
12 | C[C@@H](NC(=O)c1ccc(=O)n(-c2ccncc2)c1)c1cc(N)cc(C(F)(F)F)c1 [Example 163, N-[(1R)-1-[3-amino-5-(trifluoromethyl)phenyl]ethyl]-6-oxo-1-(4-pyridyl)pyridine-3-carboxamide] | < 1000
13 | CNCc1cc2c(cc1-c1ccc([C@@H](C)NC(=O)c3ccc(=O)n(-c4ccccc4F)c3)s1)CC2 [Example 276, 1-(2-fluorophenyl)-N-[(1R)-1-[5-[4-(methylaminomethyl)-3-bicyclo[4.2.0]octa-1,3,5-trienyl]-2-thienyl]ethyl]-6-oxo-pyridine-3-carboxamide] | < 1000
14 | C[C@@H](NC(=O)c1ccc(=O)n(-c2cccc(-c3nnco3)c2)n1)c1cc(N)cc(C(F)(F)F)c1 [Example 235, N-[(1R)-1-[3-amino-5-(trifluoromethyl)phenyl]ethyl]-1-[3-(1,3,4-oxadiazol-2-yl)phenyl]-6-oxo-1,6-dihydropyridazine-3-carboxamide] | < 1000
15 | C[C@@H](NC(=O)c1ccc(=O)n(-c2ccncc2)c1)c1cccc(C(F)(F)CO)c1F [Example 162, N-[(1R)-1-[3-(1,1-difluoro-2-hydroxy-ethyl)-2-fluoro-phenyl]ethyl]-6-oxo-1-(4-pyridyl)pyridine-3-carboxamide] | < 1000
16 | C[C@@H](NC(=O)c1ccc(=O)n(-c2cccc(-c3ccn(C(F)F)n3)c2)n1)c1cccc(C(F)(F)CO)c1F [Example 345, N-[(1R)-1-[3-(1,1-difluoro-2-hydroxy-ethyl)-2-fluoro-phenyl]ethyl]-1-[3-[1-(difluoromethyl)pyrazol-3-yl]phenyl]-6-oxo-pyridazine-3-carboxamide] | < 1000
17 | COc1ccc(-n2nc(C(=O)N[C@H](C)c3cccc(C(F)(F)CO)c3F)ccc2=O)c(F)c1 [Example 215, N-[(1R)-1-[3-(1,1-difluoro-2-hydroxy-ethyl)-2-fluoro-phenyl]ethyl]-1-(2-fluoro-4-methoxy-phenyl)-6-oxo-pyridazine-3-carboxamide] | < 1000
18 | COCc1cccc(-n2nc(C(=O)N[C@H](C)c3cccc(C(F)(F)CO)c3F)ccc2=O)c1 [Example 204, N-[(1R)-1-[3-(1,1-difluoro-2-hydroxy-ethyl)-2-fluoro-phenyl]ethyl]-1-[3-(methoxymethyl)phenyl]-6-oxo-pyridazine-3-carboxamide] | < 1000
19 | COc1ccc(-n2nc(C(=O)N[C@H](C)c3cccc(C(F)(F)CO)c3F)ccc2=O)cc1C(=O)N(C)C [Example 206, N-[(1R)-1-[3-(1,1-difluoro-2-hydroxy-ethyl)-2-fluoro-phenyl]ethyl]-1-[3-(dimethylcarbamoyl)-4-methoxy-phenyl]-6-oxo-pyridazine-3-carboxamide] | < 1000
20 | CNCc1cc2c(cc1-c1ccc([C@@H](C)NC(=O)c3ccc(=O)n(-c4ccccc4F)n3)s1)CCC2 [Example 274, 1-(2-fluorophenyl)-N-[(1R)-1-[5-[6-(methylaminomethyl)indan-5-yl]-2-thienyl]ethyl]-6-oxo-pyridazine-3-carboxamide] | < 1000
21 | C[C@@H](NC(=O)c1ccc(=O)n(-c2cccnc2)c1)c1cccc(C(F)(F)CO)c1F [Example 175, N-[(1R)-1-[3-(1,1-difluoro-2-hydroxy-ethyl)-2-fluoro-phenyl]ethyl]-6-oxo-1-(3-pyridyl)pyridine-3-carboxamide] | 1000 to 10000
22 | CCn1nncc1-c1cccc(-n2nc(C(=O)N[C@H](C)c3cc(N)cc(C(F)(F)F)c3)ccc2=O)c1 [Example 327, N-[(1R)-1-[3-amino-5-(trifluoromethyl)phenyl]ethyl]-1-[3-(3-ethyltriazol-4-yl)phenyl]-6-oxo-pyridazine-3-carboxamide] | < 1000
23 | CNCc1ccc(C#N)cc1-c1ccc([C@@H](C)NC(=O)c2ccc(=O)n(-c3ccccc3F)n2)s1 [Example 410] | < 1000
24 | C[C@@H](NC(=O)c1ccc(=O)n(-c2cccc(-c3cncs3)c2)n1)c1cc(N)cc(C(F)(F)F)c1 [Example 341, N-[(1R)-1-[3-amino-5-(trifluoromethyl)phenyl]ethyl]-6-oxo-1-(3-thiazol-5-ylphenyl)pyridazine-3-carboxamide] | < 1000
25 | C[C@@H](NC(=O)c1ccc(=O)n(-c2cccc(C(=O)OC(C)(C)C)c2)n1)c1cc(N)cc(C(F)(F)F)c1 [Example 248, Tert-butyl 3-[3-[[(1R)-1-[3-amino-5-(trifluoromethyl)phenyl]ethyl]carbamoyl]-6-oxo-pyridazin-1-yl]benzoate] | < 1000
26 | COc1ccc(-n2nc(C(=O)N[C@H](C)c3cc(N)cc(C(F)(F)F)c3)ccc2=O)cc1C(=O)N(C)C [Example 207, N-[(1R)-1-[3-amino-5-(trifluoromethyl)phenyl]ethyl]-1-[3-(dimethylcarbamoyl)-4-methoxy-phenyl]-6-oxo-pyridazine-3-carboxamide] | < 1000
27 | C[C@@H](NC(=O)c1ccc(=O)n(-c2cccc(-c3nccs3)c2)n1)c1cccc(C(F)(F)CO)c1F [Example 336, N-[(1R)-1-[3-(1,1-difluoro-2-hydroxy-ethyl)-2-fluoro-phenyl]ethyl]-6-oxo-1-(3-thiazol-2-ylphenyl)pyridazine-3-carboxamide] | < 1000
